Among the data in US20210300940A1 (Merck Patent GmbH, priority 2018, published 2021) are IC50 values, retold here.

Molecules are shown by their SMILES. Where a name gives a salt, the structure may show the parent alone.

One assay concerns the target T1, TLR8 (Homo sapiens, UniProt Q9NR97).
T1 construct: expressed in transfected cells; host or cells: HEK/293 reporter cells (NF-kB luciferase)
T1 sequence (Q9NR97 27-1041): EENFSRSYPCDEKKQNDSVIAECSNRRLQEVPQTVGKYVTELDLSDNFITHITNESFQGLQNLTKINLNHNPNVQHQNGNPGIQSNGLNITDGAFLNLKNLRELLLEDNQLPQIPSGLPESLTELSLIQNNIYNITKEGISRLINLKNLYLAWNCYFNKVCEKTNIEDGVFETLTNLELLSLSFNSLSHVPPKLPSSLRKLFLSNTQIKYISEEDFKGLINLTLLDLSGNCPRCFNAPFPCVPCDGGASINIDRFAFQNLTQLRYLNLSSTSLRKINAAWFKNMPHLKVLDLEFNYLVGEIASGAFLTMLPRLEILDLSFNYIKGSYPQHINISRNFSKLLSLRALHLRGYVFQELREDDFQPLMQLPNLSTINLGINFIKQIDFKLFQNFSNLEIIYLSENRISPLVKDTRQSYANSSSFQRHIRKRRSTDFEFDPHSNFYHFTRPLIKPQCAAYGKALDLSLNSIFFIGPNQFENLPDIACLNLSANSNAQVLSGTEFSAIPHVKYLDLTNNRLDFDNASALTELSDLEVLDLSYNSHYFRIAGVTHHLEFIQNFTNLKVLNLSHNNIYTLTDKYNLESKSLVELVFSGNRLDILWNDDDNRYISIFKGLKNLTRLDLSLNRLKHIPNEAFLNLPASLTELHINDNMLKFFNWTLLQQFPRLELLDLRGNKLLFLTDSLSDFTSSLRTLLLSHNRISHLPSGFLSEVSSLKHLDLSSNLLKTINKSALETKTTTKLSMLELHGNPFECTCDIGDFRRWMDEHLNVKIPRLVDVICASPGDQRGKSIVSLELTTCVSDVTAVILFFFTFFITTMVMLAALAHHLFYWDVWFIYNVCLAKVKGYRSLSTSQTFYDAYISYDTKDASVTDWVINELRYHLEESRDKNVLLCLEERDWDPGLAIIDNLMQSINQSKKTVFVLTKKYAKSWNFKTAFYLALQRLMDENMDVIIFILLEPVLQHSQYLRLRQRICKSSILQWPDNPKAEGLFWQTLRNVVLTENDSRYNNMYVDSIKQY
Kind of assay: HEK/293 TLR8 Cell Assay. The assay is classed as cell-based. The settings on record: HEK cells, R848 agonist 30 uM final concentration, Steady-Glo readout; read-out: TLR8 potency.

The next assay addresses T2, TLR7 (Homo sapiens, UniProt Q9NYK1).
T2 construct: expressed in transfected cells; host or cells: HEK/293 cells carrying TLR7 and an NF-kB luciferase reporter
T2 sequence (Q9NYK1 27-1049): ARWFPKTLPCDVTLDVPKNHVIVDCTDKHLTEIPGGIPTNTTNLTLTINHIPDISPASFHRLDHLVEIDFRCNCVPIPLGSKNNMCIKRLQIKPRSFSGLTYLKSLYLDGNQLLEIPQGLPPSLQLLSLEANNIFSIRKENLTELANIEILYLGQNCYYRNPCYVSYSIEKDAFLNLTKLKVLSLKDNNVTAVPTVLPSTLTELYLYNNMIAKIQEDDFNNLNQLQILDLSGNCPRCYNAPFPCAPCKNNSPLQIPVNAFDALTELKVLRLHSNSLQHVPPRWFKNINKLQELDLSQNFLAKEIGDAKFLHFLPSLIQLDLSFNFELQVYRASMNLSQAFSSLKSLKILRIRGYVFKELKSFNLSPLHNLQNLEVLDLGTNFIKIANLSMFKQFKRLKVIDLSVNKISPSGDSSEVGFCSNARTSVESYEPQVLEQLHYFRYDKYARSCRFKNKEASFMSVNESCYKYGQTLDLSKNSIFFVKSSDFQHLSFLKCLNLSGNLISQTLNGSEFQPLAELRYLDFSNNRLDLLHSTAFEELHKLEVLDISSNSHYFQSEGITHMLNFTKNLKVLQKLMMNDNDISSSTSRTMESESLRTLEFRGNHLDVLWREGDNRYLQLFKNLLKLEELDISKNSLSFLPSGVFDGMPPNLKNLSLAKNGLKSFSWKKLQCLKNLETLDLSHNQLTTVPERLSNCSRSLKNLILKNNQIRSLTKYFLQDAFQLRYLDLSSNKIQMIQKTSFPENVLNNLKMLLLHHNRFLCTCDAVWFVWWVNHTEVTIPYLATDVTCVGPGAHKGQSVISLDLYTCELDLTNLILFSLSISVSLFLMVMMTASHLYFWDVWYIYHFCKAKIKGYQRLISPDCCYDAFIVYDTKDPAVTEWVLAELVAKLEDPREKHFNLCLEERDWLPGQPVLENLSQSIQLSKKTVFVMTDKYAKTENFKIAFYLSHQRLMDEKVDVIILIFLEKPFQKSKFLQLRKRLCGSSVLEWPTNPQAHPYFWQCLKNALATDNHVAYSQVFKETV
Kind of assay: HEK/293 TLR7 Cell Assay. The conditions noted are these: TLR7/NFKb HEK cells, R848 agonist 10 uM final concentration, Steady-Glo readout; read-out: TLR7 potency. The assay is classed as cell-based. The essentials:
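TLR7/NF-κB reporter HEK293 cells, 5000/well, cultured 24 h, then preincubated 30 min with compound before R848 agonist (10 uM final). After 5 h stimulation, Steady-Glo luciferase luminescence read.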

Take `N#Cc1ccc(N2C[C@H](CN3CC(O)C3)O[C@H](C(F)(F)F)C2)c2nccnc12` (single isomer, unassigned) [Example 361]: the IC50 at TLR8 was 75 to 150 nM; on TLR7, less than 75 nM.

Regarding `C[C@H]1C[C@@H](NC(=O)[C@@](C)(N)CO)CN(c2ccc(C(F)(F)F)c3ncccc23)C1` [Example 178, (S)-2-Amino-3-hydroxy-2-methyl-N-[(3R,5S)-5-methyl-1-(8-trifluoromethyl-quinolin-5-yl)-piperidin-3-yl]-propionamide], the results for the IC50 on TLR8 and on TLR7 were less than 75 nM and more than 150 nM, respectively.

Regarding `C[C@@H]1CN(c2cnc(C(F)(F)F)c3ncccc23)C[C@H](CNC2CCS(=O)(=O)CC2)O1` [Example 384, (1,1-Dioxo-hexahydro-1lambda6-thiopyran-4-yl)-[(2S,6R)-6-methyl-4-(8-trifluoromethyl-[1,7]naphthyridin-5-yl)-morpholin-2-ylmethyl]-amine], the IC50 was more than 150 nM at TLR8 and less than 75 nM on TLR7.

Turning to `CC[C@@H](NC(=O)[C@H]1CN(c2ccc(C#N)c3nccnc23)C[C@@H](C)O1)C(N)=O` [Example 248, (2R,6R)-4-(8-Cyano-quinoxalin-5-yl)-6-methyl-morpholine-2-carboxylic acid ((R)-1-carbamoyl-propyl)-amide], the results for the IC50 at TLR8 and on TLR7 were less than 75 nM and 75 to 150 nM, respectively.

Consider `CC(C(=O)N[C@@H]1C[C@H](C)CN(c2ccc(C(F)(F)F)c3ncccc23)C1)N1CCC(O)CC1` (single isomer, unassigned) [Example 104], for which the IC50 at TLR8 and at TLR7 was less than 75 nM throughout.

As for `C[C@H]1C[C@@H](N)CN(c2cnc(C#N)c3ncccc23)C1` [Example 8, 5-((3R,5S)-3-Amino-5-methyl-piperidin-1-yl)-[1,7]naphthyridine-8-carbonitrile hydrochloride], the IC50 on TLR8 and at TLR7 was less than 75 nM throughout.

On to `N#Cc1ccc(N2C[C@@H](C(F)(F)F)O[C@@H](C(=O)NC[C@]3(F)CCNC3)C2)c2nccnc12` (single isomer, unassigned) [Example 309], for which the IC50 on TLR8 and at TLR7 was less than 75 nM throughout.

As for `CN1CCC(F)(CNC(=O)[C@H]2CN(c3ccc(C#N)c4nccnc34)C[C@@H](C(F)(F)F)O2)CC1` (single isomer, unassigned) [Example 359], the IC50 at TLR8 and at TLR7 was less than 75 nM in each case.

Turning to `C[C@@H]1CN(c2ccc(C#N)c3nccnc23)C[C@H](CSC[C@H](O)CO)O1` (single isomer, unassigned) [Example 229], the IC50 at TLR8 is less than 75 nM; on TLR7, 75 to 150 nM.

`C[C@@H]1CN(c2ccc(C#N)c3nccnc23)C[C@H](CSC2CN(CC(C)(C)O)C2)O1` [Example 226, 8-{(2R,6R)-2-[1-(2-Hydroxy-2-methyl-propyl)-azetidin-3-ylsulfanylmethyl]-6-methyl-morpholin-4-yl}-quinoxaline-5-carbonitrile]: the IC50 on TLR8 and at TLR7 was less than 75 nM throughout.

Take `C[C@H]1C[C@@H](NC(=O)CCN)CN(c2ccc(C(F)(F)F)c3ncccc23)C1` [Example 166, 3-Amino-N-[(3R,5S)-5-methyl-1-(8-trifluoromethyl-quinolin-5-yl)-piperidin-3-yl]-propionamide]: the IC50 is less than 75 nM at TLR8 and 75 to 150 nM on TLR7.

As for `N#Cc1ccc(N2C[C@@H](C(=O)N3C[C@@H](N)C4(CC4)C3)O[C@@H](C(F)(F)F)C2)c2nccnc12` (single isomer, unassigned) [Example 312], the IC50 at TLR8 was more than 150 nM; on TLR7, less than 75 nM.

With `CN1CCC(F)(CNC(=O)[C@@H]2CN(c3cnc(C#N)c4ncccc34)C[C@H](C(F)(F)F)O2)CC1` (single isomer, unassigned) [Example 351], the IC50 on TLR8 and on TLR7 was less than 75 nM throughout.
